According to US20140038967A1, “NOVEL USE FOR IMIDAZOTRIAZINONES” (ALGIAX PHARMACEUTICALS GMBH, priority 2011, published 2014):

Tests used:
[1] = system: embryonic DRG explants; test: Axonal growth and Schwann cell expansion in embryonic DRG explants; format: cell-based, Wistar rat
Description: In vitro experiments with an imidazotriazinone to improve axonal growth and Schwann cell expansion in embryonic DRG explants of rats.
Outgrowth studies with 7-(4-tert-butylcyclohexyl)-5-ethyl-2-phenylimidazo[5,1-f][1,2,4]triazin-4(3H)-one or the vehicle were performed on embryonic neural tissue. DRGs of thoracic, lumbar, and sacral levels were prepared from Wistar rat embryos E18-20 and processed in ice cold 0.6% glucose in PBS. Harvested DRGs were freed from attaching nerve fibres, dissected, and transferred onto poly-D-lysine- and laminin-coated glass coverlips. To avoid cluster formation, a maximum of two DRG explants was transferred onto a single glass coverslip. Following an initial attachment phase, the pre-incubation medium was replaced by fully supplemented growth medium spiked with the test item (7-(4-tert-butylcyclohexyl)-5-ethyl-2-phenylimidazo[5,1-f][1,2,4]triazin-4(3H)-one groups 2 and 3) or vehicle (DMF, group 1) and incubated at 37° C./10% CO2 for additional 22 hours in vitro. Following 22 hours in vitro, the DRG explants were fluorescently labelled and axonal growth and Schwann cell expansion were quantitatively assessed.
The following experimental groups were included into the study: • Fully supplemented growth medium with 0.1% vehicle. • Fully supplemented growth medium with 0.1% vehicle and 7-(4-tert-butylcyclohexyl)-5-ethyl-2-phenylimidazo[5,1-f][1,2,4]triazin-4(3H)-one at a final concentration of 0.01 μM. • Fully supplemented growth medium with 0.1% vehicle and 7-(4-tert-butylcyclohexyl)-5-ethyl-2-phenylimidazo[5,1-f][1,2,4]triazin-4(3H)-one at a final concentration of 0.1 μM. • Fully supplemented growth medium with 0.1% vehicle and 7-(4-tert-butylcyclohexyl)-5-ethyl-2-phenylimidazo[5,1-f][1,2,4]triazin-4(3H)-one at a final concentration of 1 μM.

[2] = system: severe spinal cord contusion injury; test: BBB open field locomotor rating scale after severe spinal cord contusion injury, intrathecal treatment; format: in vivo, Lewis rats
Description: Intrathecal treatment with a imidazotriazinone after severe spinal cord contusion injury in the rat.
(§1) Thirteen week-old female Lewis rats (Charles River, Sulzfeld Germany) were housed under a 12:12 h dark/light regime and allowed free access to water and food. After one week of habituation the animals underwent general anesthesia with a mixture of isoflurane and air (induction: 5% isoflurane, maintenance: 2.2% isofluorane). A T8 laminectomy was performed without rupturing the dura and a severe contusive SCI (25 gcm NYU/MASCIS II impactor) {Gruner, 1992 #3} was induced. Thereafter, the surgery continued with the procedure to position the silicon tube intrathecal catheter (7740, Alzet). Firstly, the catheter was filled with either the active or the vehicle solution. Secondly, another laminectomy was performed, again without rupturing the dura, at T11. At this position a small incision was made into the dura and the catheter was inserted at thoracic level 11 and pushed forward under lamina of T10-T9 to the lesion site at T8. […]
(§2) The BBB Open Field Locomotor Rating Scale: • The BBB locomotor rating scale was used to assess general locomotor performance (Basso et al., 1995). The score was assessed before injury and at 1, 3, 5, 7, 14, 21, 35, 42, 49, 56 and 63 days post operation (dpo) by 2 blinded observers.

[3] = system: severe spinal cord contusion injury; test: Explorative rearing test after severe spinal cord contusion injury, intrathecal treatment; format: in vivo, Lewis rats; conditions: intrathecal 100 μM over 14 days
Description: as §1, with “T8. The catheter was then cut at the appropriate length and connected to a filled osmotic minipump (Alzet, model 2002) which was placed subcutaneously. The overlying tissue was sutured, and a subcutaneous (s.c.) injection of 5 ml of Ringers Lactate was given. The different solutions (active or vehicle) were infused at a flow rate of 0.5 μl/h over a time period of 14 days.” for “T8.”
When placed in a Plexiglas cylinder (18 cm diameter×35.0 cm height), animals spontaneously rear and contact the walls with their forepaws. Numbers, duration and types of rears were analyzed during the 3-min recorded observation period in the cylinder (Himes et al., 2006; Shumsky et al., 2003). […] The testing session was videotaped, and rearing behaviour was scored blindly at a later date. […]
Occasionally an animal progressed through several types of rears before touching down, in which case the time the animal spend in each rearing height was measured by counting the single video frames. Data were expressed as number of attempts (rears), attempt duration and the time each animal spend in the different rearing heights.

[4] = system: severe spinal cord contusion injury; test: BBB open field locomotor rating scale after severe spinal cord contusion injury, oral treatment; format: in vivo, Lewis rats
Description: as §2
Oral Treatment with a Imidazotriazinone after Severe Spinal Cord Contusion Injury in the Rat.
Thirteen week-old female Lewis rats (Charles River, Sulzfeld Germany) were housed under a 12:12 h dark/light regime and allowed free access to water and food. After one week of habituation the animals underwent general anesthesia with a mixture of isoflurane and air (induction: 5% isoflurane, maintenance: 2.2% isofluorane). A Th10 laminectomy was performed without rupturing the dura and a severe contusive SCI (25 gcm NYU/MASCIS II impactor) (Gruner, 1992) was induced. After suturing muscle and skin, a subcutaneous (s.c.) injection of 5 ml of Ringers Lactate was given. Bladders were emptied manually 2 times a day until spontaneous voiding returned (usually within 1 week). The lesion severity was verified by the impact velocity and contusion depth of the impactor rod. Animals with an impact velocity error >5% were excluded from further analysis. After injury, individual rats were randomly assigned into a treatment group. The following groups were used: […]

[5] = tested 0.01, 0.1 and 1 μM, 22 hours in vitro
[6] = compared to vehicle control animals (FIG. 3)

Question: Which “Schwann cell numbers compared to vehicle-treated cultures” value ([1]; 0.01-1 μM, 22 hours in vitro) does the source give for CCc1nc(C2CCC(C(C)(C)C)CC2)n2nc(-c3ccccc3)[nH]c(=O)c12 (stereo not drawn) [7-(4-tert-butylcyclohexyl)-5-ethyl-2-phenylimidazo[5,1-f][1,2,4]triazin-4(3H)-one] here?
Answer: The value was “increased nearly fourfold”.

Question: What about the “Schwann cell expansion (numbers of Schwann cells outside the DRG explant core)” value ([1]; 0.01-1 μM, 22 hours in vitro (FIG. 1B)) of the same molecule?
Answer: The value was “significant increase”.

Question: What about the “growth area of outgrowing axons” value ([1]; 0.01-1 μM, 22 hours in vitro, compared to vehicle-treated cultures (FIG. 1A)) of the same molecule?
Answer: The value was “significant increase”.

Question: What about the “concentration at which Schwann cell numbers were highest” value [1, 5] of the same molecule?
Answer: Its value is 0.1 µM.

Question: And the “concentration at which elevation of axonal growth areas was highest” value [1, 5]?
Answer: The value was 0.1 µM.

Question: What about the “BBB locomotor rating scale, treatment effect over the entire time-period of the assessment” value ([2]; intrathecal 100 μM, 0.5 μl/h over 14 days, ANOVA-RM p=0.013 vs vehicle (FIG. 2)) of the same molecule?
Answer: Its value is “significant effect”.

Question: What about the “functional recovery after severe spinal cord contusion (overall, example 2)” value ([2]; intrathecal treatment, rat) of the same molecule?
Answer: Its value is “significantly improves functional recovery”.

Question: What about the “duration of rearing attempts” value [3, 6] of the same molecule?
Answer: The value was “longer in time”.

Question: And the “height reached by forepaws in rearing attempts” value [3, 6]?
Answer: The value was “reached much higher”.

Question: What about the “types of rears performed” value ([3]; vehicle animals only crouch or rear) of the same molecule?
Answer: Its value is “able to perform standing and even reaching”.

Question: And the “BBB score at steady state” value ([4]; 10 mg in vehicle, vehicle animals 7.8 (FIG. 4))?
Answer: The value was 9.0.

Question: And the “BBB score at the end of the experiment compared to vehicle controls” value ([4]; 10 mg, DPO 56, Students T-Test p=0.0012 (FIG. 5))?
Answer: The value was “performed significantly better”.
